The supplement of paper PMC6965134
± gives the standard deviation of the averaged measurements. Values belong to the molecule of their own block, whether it stands above or below them.

Assay: TIMS collisional cross section (CCS, N2) of the lipid ion; higher = larger ion cross section
Conditions: ionization mode: negative, one isomer drawn
Protocol: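 Lipid extracts of human plasma (NIST SRM 1950), mouse liver or HeLa cells were separated by nanoflow C18 LC (30 min gradient) and analysed by TIMS-PASEF on a timsTOF Pro. Ion mobility was calibrated with the Agilent tuning mix (negative mode ions) and converted to collisional cross sections (Mason–Schamp, N2).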

[1] = sample type: Mouse Liver, ion (formula + adduct): [C43H74NO9P-H] 1-
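Further: lipids from MTBE extraction, five replicate injections per sample, 100 ms TIMS ramp spanning 0.6–1.95 Vs/cm², lipid identity assigned from PASEF MS/MS spectra.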

Compound: CCCCC/C=C\C/C=C\C/C=C\C/C=C\CCCC(=O)OC[C@@H](O)COP(=O)(O)OCCN [LPE 20:4_0:0]
TIMS collisional cross section (sample type: Mouse Liver, ion (formula + adduct): [C25H44NO7P-H] 1-): 217.3 Å²

Compound: CCCCC/C=C\C/C=C\C/C=C\C/C=C\C/C=C\CCC(=O)OC[C@@H](O)COP(=O)(O)OCCN [LPE 22:5_0:0]
TIMS collisional cross section (sample type: Human plasma, ion (formula + adduct): [C27H46NO7P-H] 1-): 222.18 ± 0.25 Å²
TIMS collisional cross section (sample type: Mouse Liver, ion (formula + adduct): [C27H46NO7P-H] 1-): 222.05 ± 0.35 Å²

Compound: CC/C=C\C/C=C\C/C=C\C/C=C\C/C=C\C/C=C\CCC(=O)OC[C@@H](O)COP(=O)(O)OCCN [LPE 22:6_0:0]
TIMS collisional cross section (sample type: Human plasma, ion (formula + adduct): [C27H44NO7P-H] 1-): 222.4 Å²

Compound: CCCCCCCC/C=C\CCCCCCCCOC[C@@H](O)COP(=O)(O)OCCN [LPE O- 18:1_0:0]
TIMS collisional cross section (sample type: Human plasma, ion (formula + adduct): [C23H48NO6P-H] 1-): 218.6 ± 2.1 Å²

Compound: CCCCCCCCCCCCCCCCCC/C=C\OC[C@@H](O)COP(=O)(O)OCCN [LPE O- 20:0_0:0]
TIMS collisional cross section (sample type: Human plasma, ion (formula + adduct): [C25H52NO6P-H] 1-): 223.9 Å²
TIMS collisional cross section (sample type: Mouse Liver, ion (formula + adduct): [C25H52NO6P-H] 1-): 222.7 Å²

Compound: CCCCCCCCCCCCCCCCCC(=O)OC[C@@H](O)COP(=O)(O)OC[C@@H](O)CO [LPG 18:0_0:0]
TIMS collisional cross section (sample type: Human plasma, ion (formula + adduct): [C24H49O9P-H] 1-): 224.9 Å²

Compound: CCCCCCCC/C=C\CCCCCCCC(=O)OC[C@@H](O)COP(=O)(O)OC[C@@H](O)CO [LPG 18:1_0:0]
TIMS collisional cross section (sample type: Mouse Liver, ion (formula + adduct): [C24H47O9P-H] 1-): 221.1 Å²

Compound: CCCCCCCCCCCCCCCC(=O)OC[C@@H](O)COP(=O)(O)OC1C(O)C(O)C(O)[C@@H](O)C1O (some centres undefined) [LPI 16:0]
TIMS collisional cross section (sample type: Mouse Liver, ion (formula + adduct): [C25H49O12P-H] 1-): 232.6 Å²

Compound: CCCCCC/C=C\CCCCCCCC(=O)OC[C@@H](O)COP(=O)(O)OC1[C@H](O)[C@H](O)C(O)[C@H](O)[C@H]1O (some centres undefined) [LPI 16:1_0:0]
TIMS collisional cross section (sample type: Human plasma, ion (formula + adduct): [C25H47O12P-H] 1-): 230.2 Å²

Compound: CCCCCCCCCCCCCCCCCC(=O)OC[C@@H](O)COP(=O)(O)OC1C(O)C(O)C(O)[C@@H](O)C1O (some centres undefined) [LPI 18:0_0:0]
TIMS collisional cross section (sample type: Human plasma, ion (formula + adduct): [C27H53O12P-H] 1-): 239.4 Å²

Compound: CCCCCCCC/C=C\CCCCCCCC(=O)OC[C@@H](O)COP(=O)(O)OC1[C@H](O)[C@H](O)C(O)[C@H](O)[C@H]1O (some centres undefined) [LPI 18:1_0:0]
TIMS collisional cross section (sample type: Human plasma, ion (formula + adduct): [C27H51O12P-H] 1-): 238.3 Å²

Compound: CC/C=C\C/C=C\C/C=C\C/C=C\CCCCC(=O)OC[C@@H](O)COP(=O)(O)OC1[C@H](O)[C@H](O)C(O)[C@H](O)[C@H]1O (some centres undefined) [LPI 18:4_0:0]
TIMS collisional cross section (sample type: Mouse Liver, ion (formula + adduct): [C27H45O12P+AcO] 1-): 244.9 Å²

Compound: CCCCC/C=C\C/C=C\C/C=C\C/C=C\CCCC(=O)OC[C@@H](O)COP(=O)(O)OC1C(O)C(O)C(O)[C@@H](O)C1O (some centres undefined) [LPI 20:4_0:0]
TIMS collisional cross section (sample type: Human plasma, ion (formula + adduct): [C29H49O12P-H] 1-): 239.9 Å²
TIMS collisional cross section (sample type: Mouse Liver, ion (formula + adduct): [C29H49O12P-H] 1-): 241 Å²

Compound: CCCCCCCCCCCCCCCCCC(=O)OC[C@@H](O)COP(=O)(O)OC[C@H](N)C(=O)O [LPS 18:0_0:0]
TIMS collisional cross section (sample type: Mouse Liver, ion (formula + adduct): [C24H48NO9P-H] 1-): 227.7 Å²

Compound: CCCCC/C=C\C[C@H](O)/C=C/C=C\C/C=C\CCCC(=O)O[C@H](COC(=O)CCCCCCCCCCCCCCC)COP(=O)([O-])OCC[N+](C)(C)C [Oxidized PC 16:0@_20:4]
TIMS collisional cross section (sample type: Mouse Liver, ion (formula + adduct): [C44H80NO9P-CH3] 1-): 281.3 Å²

Compound: CCCCCCCCCCCCCCCC(=O)OC[C@H](COP(=O)([O-])OCC[N+](C)(C)C)OC(=O)CCCC(=O)O [Oxidized PC 16:0_5:0]
TIMS collisional cross section (sample type: Mouse Liver, ion (formula + adduct): [C29H56NO10P-CH3] 1-): 240.1 Å²

Compound: CCCCCCCCCCCCCCCC(=O)OC[C@H](COP(=O)([O-])OCC[N+](C)(C)C)OC(=O)CCCC=O [Oxidized PC 16:0_5:0]
TIMS collisional cross section (sample type: Human plasma, ion (formula + adduct): [C29H56NO9P+HCOO] 1-): 255.5 Å²
TIMS collisional cross section (sample type: Mouse Liver, ion (formula + adduct): [C29H56NO9P+AcO] 1-): 258.4 Å²

Compound: CCCCCCCCCCCCCCCC(=O)OC[C@H](COP(=O)([O-])OCC[N+](C)(C)C)OC(=O)CCCCCCCC(=O)O [Oxidized PC 16:0_9:0@]
TIMS collisional cross section (sample type: Mouse Liver, ion (formula + adduct): [C33H64NO10P-CH3] 1-): 255.5 Å²

Compound: CCCCC/C=C\C[C@H](O)/C=C/C=C\C/C=C\CCCC(=O)O[C@H](COC(=O)CCCCCCCCCCCCCCC)COP(=O)([O-])OCC[N+](C)(C)C [Oxidized PC 16:0_20:4]
TIMS collisional cross section (sample type: Human plasma, ion (formula + adduct): [C44H80NO9P+HCOO] 1-): 296.77 ± 1.3 Å²
TIMS collisional cross section (sample type: Mouse Liver, ion (formula + adduct): [C44H80NO9P+HCOO] 1-): 295.67 ± 1.9 Å²

Compound: CCCCC/C=C\C[C@H](O)/C=C/C=C\C/C=C\CCCC(=O)O[C@H](CO/C=C\CCCCCCCCCCCCCC)COP(=O)(O)OCCN [Oxidized PE 16:0@_20:4]
TIMS collisional cross section (sample type: Human plasma, ion (formula + adduct): [C41H74NO8P+OAcO] 1-): 291.6 Å²
TIMS collisional cross section (sample type: Human plasma, ion (formula + adduct): [C41H74NO8P-H] 1-): 274.77 ± 1.5 Å²

Compound: CC/C=C\C/C=C\CC(O)/C=C/C=C\C/C=C\C/C=C\CCC(=O)O[C@H](COC(=O)CCCCCCCCCCCCCCC)COP(=O)(O)OCCN (some centres undefined) [Oxidized PE 16:0@_22:6]
TIMS collisional cross section [1]: 279 Å²

Compound: CC/C=C\C/C=C\CC(O)/C=C/C=C\C/C=C\C/C=C\CCC(=O)O[C@H](COC(=O)CCCCCCCCCCCCCCC)COP(=O)(O)OCCN (some centres undefined) [Oxidized PE 16:0_22:6@]
TIMS collisional cross section [1]: 290.6 Å²

Second part, the molecule after the results:

TIMS collisional cross section (sample type: Human plasma, ion (formula + adduct): [C25H42NO7P-H] 1-): 216.7 Å²
TIMS collisional cross section (sample type: Mouse Liver, ion (formula + adduct): [C25H42NO7P-H] 1-): 216.7 Å²
Compound: CC/C=C\C/C=C\C/C=C\C/C=C\C/C=C\CCCC(=O)OC[C@@H](O)COP(=O)(O)OCCN [LPE 20:5_0:0]

TIMS collisional cross section (sample type: Human plasma, ion (formula + adduct): [C27H48NO7P-H] 1-): 223.5 Å²
TIMS collisional cross section (sample type: Mouse Liver, ion (formula + adduct): [C27H48NO7P-H] 1-): 222.9 Å²
Compound: CCCCC/C=C\C/C=C\C/C=C\C/C=C\CCCCCC(=O)OC[C@@H](O)COP(=O)(O)OCCN [LPE 22:4_0:0]

TIMS collisional cross section (sample type: Human plasma, ion (formula + adduct): [C22H45O9P-H] 1-): 216.9 Å²
Compound: CCCCCCCCCCCCCCCC(=O)OC[C@@H](O)COP(=O)(O)OC[C@@H](O)CO [LPG 16:0_0:0]

TIMS collisional cross section (sample type: Human plasma, ion (formula + adduct): [C29H51O12P-H] 1-): 240.4 Å²
Compound: CCCCC/C=C\C/C=C\C/C=C\CCCCCCC(=O)OC[C@@H](O)COP(=O)(O)OC1[C@H](O)[C@H](O)C(O)[C@H](O)[C@H]1O (some centres undefined) [LPI 20:3_0:0]

TIMS collisional cross section (sample type: Human plasma, ion (formula + adduct): [C31H49O12P-H] 1-): 243.8 Å²
Compound: CC/C=C\C/C=C\C/C=C\C/C=C\C/C=C\C/C=C\CCC(=O)OC[C@@H](O)COP(=O)(O)OC1[C@H](O)[C@H](O)C(O)[C@H](O)[C@H]1O (some centres undefined) [LPI 22:6_0:0]

TIMS collisional cross section (sample type: Mouse Liver, ion (formula + adduct): [C28H44NO9P-H] 1-): 230.2 Å²
Compound: CC/C=C\C/C=C\C/C=C\C/C=C\C/C=C\C/C=C\CCC(=O)OC[C@@H](O)COP(=O)(O)OC[C@H](N)C(=O)O [LPS 22:6]

TIMS collisional cross section (sample type: Human plasma, ion (formula + adduct): [C33H64NO9P+HCOO] 1-): 267.18 ± 0.29 Å²
TIMS collisional cross section (sample type: Human plasma, ion (formula + adduct): [C33H64NO9P-CH3] 1-): 253.8 Å²
TIMS collisional cross section (sample type: Mouse Liver, ion (formula + adduct): [C33H64NO9P+HCOO] 1-): 267.1 ± 0.42 Å²
Compound: CCCCCCCCCCCCCCCC(=O)OC[C@H](COP(=O)([O-])OCC[N+](C)(C)C)OC(=O)CCCCCCCC=O [Oxidized PC 16:0_9:0@]

TIMS collisional cross section (sample type: Human plasma, ion (formula + adduct): [C46H84NO9P+HCOO] 1-): 302.75 ± 1.5 Å²
TIMS collisional cross section (sample type: Mouse Liver, ion (formula + adduct): [C46H84NO9P+HCOO] 1-): 302.3 Å²
Compound: CCCCC/C=C\C[C@H](O)/C=C/C=C\C/C=C\CCCC(=O)O[C@H](COC(=O)CCCCCCCCCCCCCCCCC)COP(=O)([O-])OCC[N+](C)(C)C [Oxidized PC 18:0_20:4]

TIMS collisional cross section (sample type: Human plasma, ion (formula + adduct): [C43H74NO8P-H] 1-): 277.4 Å²
Compound: CC/C=C\C/C=C\CC(O)/C=C/C=C\C/C=C\C/C=C\CCC(=O)O[C@H](CO/C=C\CCCCCCCCCCCCCC)COP(=O)(O)OCCN (some centres undefined) [Oxidized PE 16:0@_22:6]

TIMS collisional cross section (sample type: Human plasma, ion (formula + adduct): [C43H74NO9P-H] 1-): 277.85 ± 0.78 Å²
TIMS collisional cross section [1]: 277.43 ± 0.71 Å²
Compound: CC/C=C\C/C=C\CC(O)/C=C/C=C\C/C=C\C/C=C\CCC(=O)O[C@H](COC(=O)CCCCCCCCCCCCCCC)COP(=O)(O)OCCN (some centres undefined) [Oxidized PE 16:0_22:6]
